Test results reported in patent US7504420B2, “Compounds which inhibit beta-secretase activity and methods of use” (CoMentis, Inc., priority 2005, dated 2009).

Tests used:
[1] = test system: Aβ production in Chinese hamster ovary cells that over-express human APP695 with the London and Swedish mutations; test: Cellular Aβ IC50 determination (Aβ40 sandwich ELISA); conditions: Cricetulus griseus, CHO, 24 h, read-out: Cell, Aβ40, CHO cells over-expressing human APP695 (London and Swedish mutations), 24 h
Procedure: The potency of compounds against memapsin 2 catalytic activity was determined in a cellular assay of Aβ production. […] Compounds are dissolved in DMSO to concentrations near 1 mM, and diluted into culture media to a final concentration near 4 μM (final 0.4% DMSO). Compounds were diluted serially and applied to cells in multi-well plates 48 h after seeding. Incubation was continued in 5% CO2 at 37 degrees C. for 24 h. Aliquots were removed and assayed for Aβ40 content using a sandwich ELISA (BioSource International). Amount of Aβ40 over the range of concentration of compounds, relative to control incubations, were fit to a 4-parameter IC50 model.

memapsin 1 = target: T1, memapsin 1 (Homo sapiens, UniProt Q9Y5Z0); test: Inhibition of memapsin 1 catalytic activity (Ki); format: biochemical; conditions: memapsin 1, pH 4.0, 37° C.; read-out: M1K
T1 sequence (Q9Y5Z0 63-518): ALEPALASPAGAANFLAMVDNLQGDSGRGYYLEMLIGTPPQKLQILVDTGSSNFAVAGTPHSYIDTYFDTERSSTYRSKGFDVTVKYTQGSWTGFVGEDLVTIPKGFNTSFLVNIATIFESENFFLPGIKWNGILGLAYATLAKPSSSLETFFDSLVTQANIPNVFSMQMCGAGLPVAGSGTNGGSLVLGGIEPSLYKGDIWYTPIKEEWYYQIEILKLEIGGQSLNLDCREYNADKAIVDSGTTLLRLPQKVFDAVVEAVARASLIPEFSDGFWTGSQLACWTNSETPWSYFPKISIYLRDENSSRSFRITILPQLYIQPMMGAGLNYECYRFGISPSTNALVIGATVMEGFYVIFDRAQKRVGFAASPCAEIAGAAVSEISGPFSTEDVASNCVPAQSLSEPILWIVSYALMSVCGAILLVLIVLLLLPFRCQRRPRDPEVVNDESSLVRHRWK
Procedure: A substrate peptide NH3-ELDLAVEFWHDR-CO2 (SEQ ID NO.:1) (used for inhibition assay of memapsin 2, memapsin 1, and cathepsin D) was dissolved at 2 mg/ml in DMSO and diluted 1:100 in 0.1 M sodium acetate, pH 4.0 just prior to assay. Inhibitor dissolved in DMSO was diluted into 0.1 M sodium acetate, pH 4.0 (1:100 dilution). A […] aliquot of the inhibitor solution in pH 4 buffer was combined with […] of 0.1 M sodium acetate containing 100-200 nM of memapsin 1, memapsin 2, or cathepsin D. Following a pre-incubation at 37° C., the proteolytic assay was initated by addition of […] of the substrate diluted into pH 4 buffer, and incubation continued at 37° C. Aliquots were removed at time intervals, and combined with an equal volume of MALDI-TOF matrix (α-hydroxycinnamic acid in acetone, 20 mg/ml) and immediately spotted in duplicate onto a stainless-steel MALDI sample plate. MALDI-TOF mass spectrometry was performed on a PE Biosystems Voyager DE instrument at the Molecular Biology Resource Center on campus. The instrument was operated at 25,000 accelerating volts in positive mode with a 150 ns delay. Ions with a mass-to-charge ratio (m/z) were detected in the range of 650-2000 atomic mass units. Data were analyzed by the Voyager Data Explorer module to obtain ion intensity data for mass species of substrates and corresponding products in a given mixture. Relative product formation was calculated as the ratio of signal intensity of the product to the sum of signal intensities of both product and the corresponding substrate. Relative product formed per unit time was obtained from non-linear regression analysis of the data representing the initial 15% formation of product using the model: 1−e^−kT, where k was the relative hydrolytic rate constant and T was time in seconds. Alternatively, relative hydrolytic rates were determined using a fluorogenic cleavage assay (Ermolieff, J. et al., Biochemistry, 39: 12450-12456 (2000)). Initial rates from either method were expressed relative to uninhibited controls and the inhibition constant Ki was determined by a non-linear fit to a tight-binding model of competitive inhibition (Bieth, J., Bayer-Symposium V: Proteinase Inhibitors, pp 463-469, Spinger-Varlag, Berlin (1994)). Results are shown in Table 1 above (M2K, CDK, and M1K columns represent, respectively, the K1 values obtained for memapsin 2, cathepsin D and memapsin 1).

cathepsin D = cathepsin D (Homo sapiens, UniProt P07339); test: Inhibition of cathepsin D catalytic activity (Ki); format: biochemical; conditions: pH 4.0, 37° C., read-out: CDK
memapsin 2 = memapsin 2 (Homo sapiens, UniProt P56817); test: Inhibition of memapsin 2 catalytic activity (Ki); format: biochemical; conditions: memapsin 2, pH 4, 37° C.; read-out: M2K
Summary of the method: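 Run at 37 °C and pH 4: compound and enzyme pre-incubated 20 min before FS-2 fluorogenic substrate started hydrolysis,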

Sequence of cathepsin D (P07339 65-412, species assumed): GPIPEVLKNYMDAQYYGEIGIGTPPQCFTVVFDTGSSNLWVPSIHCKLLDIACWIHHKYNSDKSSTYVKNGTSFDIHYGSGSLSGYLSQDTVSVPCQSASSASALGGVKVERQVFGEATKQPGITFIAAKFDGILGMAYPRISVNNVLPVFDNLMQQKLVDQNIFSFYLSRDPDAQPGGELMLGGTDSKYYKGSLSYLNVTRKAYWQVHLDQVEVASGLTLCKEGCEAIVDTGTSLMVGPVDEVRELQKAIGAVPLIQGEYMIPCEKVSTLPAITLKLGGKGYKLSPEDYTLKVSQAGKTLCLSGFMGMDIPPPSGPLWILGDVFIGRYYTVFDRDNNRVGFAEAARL
Sequence of memapsin 2 (P56817 46-501): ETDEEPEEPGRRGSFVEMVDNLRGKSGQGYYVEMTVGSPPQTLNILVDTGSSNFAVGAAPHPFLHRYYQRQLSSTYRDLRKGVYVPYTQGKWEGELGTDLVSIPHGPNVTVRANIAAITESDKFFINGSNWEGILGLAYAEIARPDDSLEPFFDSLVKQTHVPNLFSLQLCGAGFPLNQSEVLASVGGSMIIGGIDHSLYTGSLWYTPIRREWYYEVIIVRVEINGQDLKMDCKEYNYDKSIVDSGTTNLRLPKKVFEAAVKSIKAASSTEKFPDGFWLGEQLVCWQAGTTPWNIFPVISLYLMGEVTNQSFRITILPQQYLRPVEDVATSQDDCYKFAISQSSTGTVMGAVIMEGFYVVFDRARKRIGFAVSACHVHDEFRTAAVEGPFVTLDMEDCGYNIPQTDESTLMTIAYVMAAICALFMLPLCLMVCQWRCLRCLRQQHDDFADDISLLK

Structure (SMILES): CC(NC(=O)c1cc(C(=O)NC(Cc2ccccc2)C(O)CNCc2ccccn2)cc(N(C)S(C)(=O)=O)c1)c1ccccc1 (stereo not drawn) [N1-(3-hydroxy-1-phenyl-4-(pyridin-2-ylmethylamino)butan-2-yl)-5-(N-methylmethylsulfonamido)-N3-(1-phenylethyl)isophthalamide]
- IC50 [1]: < 1000 nM
- Ki (memapsin 1): > 501 nM
- Ki (cathepsin D): > 501 nM
- Ki (memapsin 2): < 300 nM

Structure (SMILES): CC(NC(=O)c1cc(C(=O)NC(Cc2ccccc2)C(O)CNCc2cccnc2)cc(N(C)S(C)(=O)=O)c1)c1ccccc1 (stereo not drawn) [N1-(3-hydroxy-1-phenyl-4-(pyridin-3-ylmethylamino)butan-2-yl)-5-(N-methylmethylsulfonamido)-N3-(1-phenylethyl)isophthalamide]
- IC50 [1]: < 1000 nM
- Ki (memapsin 1): 301 to 500 nM
- Ki (cathepsin D): > 501 nM
- Ki (memapsin 2): < 300 nM

Structure (SMILES): CC(NC(=O)c1cc(C(=O)NC(Cc2ccccc2)C(O)CNCc2ccncc2)cc(N(C)S(C)(=O)=O)c1)c1ccccc1 (stereo not drawn) [N1-(3-hydroxy-1-phenyl-4-(pyridin-4-ylmethylamino)butan-2-yl)-5-(N-methylmethylsulfonamido)-N3-(1-phenylethyl)isophthalamide]
- IC50 [1]: < 1000 nM
- Ki (memapsin 1): 301 to 500 nM
- Ki (cathepsin D): > 501 nM
- Ki (memapsin 2): < 300 nM

Structure (SMILES): COc1cccc(C(C)NCC(O)C(Cc2ccccc2)NC(=O)c2cc(C(=O)NC(C)c3ccccc3)cc(N(C)S(C)(=O)=O)c2)c1 (stereo not drawn) [N1-(3-hydroxy-4-(1-(3-methoxyphenyl)ethylamino)-1-phenylbutan-2-yl)-5-(N-methylmethylsulfonamido)-N3-(1-phenylethyl)isophthalamide]
- IC50 [1]: < 1000 nM
- Ki (memapsin 1): < 300 nM
- Ki (cathepsin D): < 300 nM
- Ki (memapsin 2): < 300 nM

Structure (SMILES): CC(NC(=O)c1cc(C(=O)NC(Cc2ccccc2)C(O)CNCc2ccccc2O)cc(N(C)S(C)(=O)=O)c1)c1ccccc1 (stereo not drawn) [N1-(3-hydroxy-4-(2-hydroxybenzylamino)-1-phenylbutan-2-yl)-5-(N-methylmethylsulfonamido)-N3-(1-phenylethyl)isophthalamide]
- IC50 [1]: < 1000 nM
- Ki (memapsin 1): < 300 nM
- Ki (cathepsin D): < 300 nM
- Ki (memapsin 2): < 300 nM

Structure (SMILES): COc1ccccc1CNCC(O)C(Cc1ccccc1)NC(=O)c1cc(C(=O)NC(C)c2ccccc2)cc(N(C)S(C)(=O)=O)c1 (stereo not drawn) [N1-(3-hydroxy-4-(2-methoxybenzylamino)-1-phenylbutan-2-yl)-5-(N-methylmethylsulfonamido)-N3-(1-phenylethyl)isophthalamide]
- IC50 [1]: < 1000 nM
- Ki (memapsin 1): 301 to 500 nM
- Ki (cathepsin D): < 300 nM
- Ki (memapsin 2): < 300 nM

Structure (SMILES): CC(NC(=O)c1cc(C(=O)NC(Cc2ccccc2)C(O)CNN(C)c2ccccc2)cc(N(C)S(C)(=O)=O)c1)c1ccccc1 (stereo not drawn) [N1-(3-hydroxy-4-(2-methyl-2-phenylhydrazinyl)-1-phenylbutan-2-yl)-5-(N-methylmethylsulfonamido)-N3-(1-phenylethyl)isophthalamide]
- IC50 [1]: > 5000 nM
- Ki (memapsin 1): > 501 nM
- Ki (cathepsin D): > 501 nM
- Ki (memapsin 2): 301 to 500 nM

Structure (SMILES): COc1cccc(CNCC(O)C(Cc2ccccc2)NC(=O)c2cc(C(=O)NC(C)c3cccnc3)cc(N(C)S(C)(=O)=O)c2)c1 (stereo not drawn) [N1-(3-hydroxy-4-(3-methoxybenzylamino)-1-phenylbutan-2-yl)-5-(N-methylmethylsulfonamido)-N3-(1-(pyridin-3-yl)ethyl)isophthalamide]
- IC50 [1]: < 1000 nM
- Ki (memapsin 1): > 501 nM
- Ki (cathepsin D): > 501 nM
- Ki (memapsin 2): < 300 nM

Structure (SMILES): CCC(NC(=O)c1cc(C(=O)NC(Cc2ccccc2)C(O)CNCc2cccc(OC)c2)cc(N(C)S(C)(=O)=O)c1)c1ccccc1 (stereo not drawn) [N1-(3-hydroxy-4-(3-methoxybenzylamino)-1-phenylbutan-2-yl)-5-(N-methylmethylsulfonamido)-N3-(1-phenylpropyl)isophthalamide]
- IC50 [1]: < 1000 nM
- Ki (memapsin 1): < 300 nM
- Ki (cathepsin D): < 300 nM
- Ki (memapsin 2): < 300 nM

Structure (SMILES): COc1cccc(CNCC(O)C(Cc2ccccc2)NC(=O)c2cc(C(=O)NC(C)c3ccccc3)cc([N+](=O)[O-])c2)c1 (stereo not drawn) [N1-(3-hydroxy-4-(3-methoxybenzylamino)-1-phenylbutan-2-yl)-5-nitro-N3-(1-phenylethyl)isophthalamide]
- IC50 [1]: < 1000 nM
- Ki (memapsin 1): < 300 nM
- Ki (cathepsin D): < 300 nM
- Ki (memapsin 2): 301 to 500 nM

Structure (SMILES): COc1cccc(CNCC(O)C(Cc2ccccc2)NC(=O)c2cccc(C(=O)NC(C)c3cccnc3)c2)c1 (stereo not drawn) [N1-(3-hydroxy-4-(3-methoxybenzylamino)-1-phenylbutan-2-yl)-N3-(1-(pyridin-3-yl)ethyl)isophthalamide]
- IC50 [1]: > 5000 nM
- Ki (memapsin 1): > 501 nM
- Ki (cathepsin D): > 501 nM
- Ki (memapsin 2): > 501 nM

Structure (SMILES): COc1cccc(CNCC(O)C(Cc2ccccc2)NC(=O)c2cc(C(=O)NCc3cccc(OC)c3)cc(N(C)S(C)(=O)=O)c2)c1 (stereo not drawn) [N1-(3-hydroxy-4-(3-methoxybenzylamino)-1-phenylbutan-2-yl)-N3-(3-methoxybenzyl)-5-(N-methylmethylsulfonamido)isophthalamide]
- IC50 [1]: 1000 to 5000 nM
- Ki (memapsin 1): > 501 nM
- Ki (cathepsin D): < 300 nM
- Ki (memapsin 2): < 300 nM

Structure (SMILES): COc1cccc(CNCC(O)C(Cc2ccccc2)NC(=O)c2cccc(C(=O)N(C)Cc3cc(C)no3)c2)c1 (stereo not drawn) [N1-(3-hydroxy-4-(3-methoxybenzylamino)-1-phenylbutan-2-yl)-N3-methyl-N3-((3-methylisoxazol-5-yl)methyl)isophthalamide]
- IC50 [1]: > 5000 nM
- Ki (memapsin 1): > 501 nM
- Ki (cathepsin D): < 300 nM
- Ki (memapsin 2): > 501 nM

Structure (SMILES): COc1cccc(CNCC(O)C(Cc2ccccc2)NC(=O)c2cccc(C(=O)N(C)Cc3nc(C)cs3)c2)c1 (stereo not drawn) [N1-(3-hydroxy-4-(3-methoxybenzylamino)-1-phenylbutan-2-yl)-N3-methyl-N3-((4-methylthiazol-2-yl)methyl)isophthalamide]
- IC50 [1]: < 1000 nM
- Ki (memapsin 1): > 501 nM
- Ki (cathepsin D): < 300 nM
- Ki (memapsin 2): < 300 nM

Structure (SMILES): Cc1cccc(CNCC(O)C(Cc2ccccc2)NC(=O)c2cc(C(=O)NC(C)c3ccccc3)cc(N(C)S(C)(=O)=O)c2)c1 (stereo not drawn) [N1-(3-hydroxy-4-(3-methylbenzylamino)-1-phenylbutan-2-yl)-5-(N-methylmethylsulfonamido)-N3-(1-phenylethyl)isophthalamide]
- IC50 [1]: < 1000 nM
- Ki (memapsin 1): 301 to 500 nM
- Ki (cathepsin D): < 300 nM
- Ki (memapsin 2): < 300 nM

Structure (SMILES): Cc1cccc(CNCC(O)C(Cc2ccccc2)NC(=O)c2cccc(C(=O)N(C)Cc3nc(C)cs3)c2)c1 (stereo not drawn) [N1-(3-hydroxy-4-(3-methylbenzylamino)-1-phenylbutan-2-yl)-N3-methyl-N3-((4-methylthiazol-2-yl)methyl)isophthalamide]
- IC50 [1]: < 1000 nM
- Ki (memapsin 1): > 501 nM
- Ki (cathepsin D): < 300 nM
- Ki (memapsin 2): > 501 nM

Structure (SMILES): Cc1csc(CNCC(O)C(Cc2ccccc2)NC(=O)c2cc(C(=O)NC(C)c3ccccc3)cc(N(C)S(C)(=O)=O)c2)n1 (stereo not drawn) [N1-(3-hydroxy-4-((4-methylthiazol-2-yl)methylamino)-1-phenylbutan-2-yl)-5-(N-methylmethylsulfonamido)-N3-(1-phenylethyl)isophthalamide]
- IC50 [1]: < 1000 nM
- Ki (memapsin 1): > 501 nM
- Ki (cathepsin D): 301 to 500 nM
- Ki (memapsin 2): < 300 nM

Structure (SMILES): Cc1csc(CN(C)C(=O)c2cccc(C(=O)NC(Cc3ccccc3)C(O)CNCc3cncc(C(C)C)c3)c2)n1 (stereo not drawn) [N1-(3-hydroxy-4-((5-isopropylpyridin-3-yl)methylamino)-1-phenylbutan-2-yl)-N3-methyl-N3-((4-methylthiazol-2-yl)methyl)isophthalamide]
- IC50 [1]: < 1000 nM
- Ki (memapsin 1): 301 to 500 nM
- Ki (cathepsin D): < 300 nM
- Ki (memapsin 2): < 300 nM
